Assay results as given in patent publication US6573382B2, “Polymorphic forms of 6-[4-(1-cyclohexyl-1H-tetrazol-5-yl)butoxy]-3,4-dihydro-2(1H)-quinolinone” (priority 2001, dated 2003).

Experiments:
[1] = aqueous solubility of the polymorphic form; format: physicochemical; conditions: Form A as prepared by the procedures of the '479 patent
[2] = bioavailability of the polymorphic form; conditions: Form A as prepared by the procedures of the '479 patent
[3] = DSC thermogram of combined Forms A, B and C (melting points compared, solubility inferred); format: physicochemical; conditions: 10° C. per minute, nitrogen purge, FIG. 8
Procedure: DSC data were generated using a Mettler-Toledo DSC 821^e (Columbus, Ohio) with a Julabo FT900 intercooler chiller (Julabo Company; Allentown, Pa.). In general, samples were analyzed in a vented, sealed aluminum pan. Because the endothermic peak may vary depending upon the rate of heating and the calibration and precision of the instrument, with the amount of peak variation dependent upon the heating rate used, all thermograms included herein were run under the same, consistent conditions: heating at 10° C. per minute under a nitrogen purge at 40 mL/minute.
FIG. 8 illustrates a DSC thermogram for the combination of Form A, Form B and Form C having a second heating cycle with a maximum temperature of about 110° C. with a holding time of about 30 minutes. The peaks in the third heating cycle show a Form A to Form B to Form C peak area ratio of approximately 8:2:1, respectively, with the relative amount of Form A, Form B and Form C further variable on the heat of enthalpy of each polymorphic form.

[4] = stability of the crystalline form; format: physicochemical
[5] = DSC reheating of disturbed (scratched/stressed) sample: solid state phase transformation to Form A; format: physicochemical; conditions: DSC heating from 30° C. to approximately 200° C. at 10° C. per minute
Procedure: DSC data were generated using a Mettler-Toledo DSC 821^e (Columbus, Ohio) with a Julabo FT900 intercooler chiller (Julabo Company; Allentown, Pa.). In general, samples were analyzed in a vented, sealed aluminum pan. Because the endothermic peak may vary depending upon the rate of heating and the calibration and precision of the instrument, with the amount of peak variation dependent upon the heating rate used, all thermograms included herein were run under the same, consistent conditions: heating at 10° C. per minute under a nitrogen purge at 40 mL/minute. The resultant sample of Example 1A was disturbed with scratching, which caused the cilostazol sample to undergo a solid state phase transformation at approximately 119° C. followed by an endotherm of melt at approximately 160° C. (Form A) during heating by DSC from 30° C. to approximately 200° C. at 10° C. per minute. When the sample is stressed and reheated (as detailed in Example 2A), the sample undergoes a solid state phase transformation at approximately 147° C. followed by an endotherm of melt at about 160° C. (Form A) during heating by DSC from 30° C. to approximately 200° C. at 10° C. per minute. This disturbance of sample is believed to induce nucleation which preferentially causes Form A of cilostazol to form upon heating.

Structure (SMILES) | aqueous solubility [1] | bioavailability [2] | solubility relative to Form A, suggested by lower melting point in DSC [3] | stability of the polymorphic form [4] | temperature of solid state phase transformation to Form A [5]
O=C1CCc2cc(OCCCCc3nnnn3C3CCCCC3)ccc2N1 [Form A, 6-[4-(1-cyclohexyl-1H-tetrazol-5-yl)butoxy]-3,4-dihydro-2(1H)-quinolinone] | low aqueous solubility | low bioavailability |  |  | 
O=C1CCc2cc(OCCCCc3nnnn3C3CCCCC3)ccc2N1 [Form B, 6-[4-(1-cyclohexyl-1H-tetrazol-5-yl)butoxy]-3,4-dihydro-2(1H)-quinolinone] |  |  | more soluble than Form A | stable | approximately 119 °C
O=C1CCc2cc(OCCCCc3nnnn3C3CCCCC3)ccc2N1 [Form C, 6-[4-(1-cyclohexyl-1H-tetrazol-5-yl)butoxy]-3,4-dihydro-2(1H)-quinolinone] |  |  | more soluble than Form A | stable | approximately 147 °C
